Holding throughout (assay): inhibition of tumour cell growth, NCI panel, 48 h
Test [1] concerns BT-549 breast.
The test system of test [2] is HL-60(TB) leukemia.
Test [3] relates to MALME-3M melanoma.
Test [4] deals with RPMI-8226 leukemia.
Test [5] has as its system MOLT-4 leukemia.
Test [6] deals with SF-539 CNS.
For test [7], the system named is HOP-62 NSCLC.
The subject of test [8] is HT29 colon.
Test [9] deals with SW-620 colon.
The subject of test [10] is HCT-116 colon.

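48-hour exposure; five concentrations; linearly interpolated endpoints. Abbreviation: GI50, concentration required for 50% inhibition of growth. TGI is the concentration that stops growth completely.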

Turning to `CNCCn1c(=O)c2cc(OC)c(OC)cc2c2ccc3cc4c(cc3c21)OCO4`, the GI50 is 0.263 µM in [1]; 0.173 µM in test [2]; 0.172 µM in [3]; 0.0842 µM in [4]; 0.0227 µM in test [5]; 0.133 µM in [6]. The figures for the GI50 in [7], in test [8] and in test [9] were 0.0705 µM, 0.072 µM and 0.0572 µM, respectively. For the same molecule, the TGI was found to be 4.37 µM in [1]; 0.864 µM in test [2]; 0.812 µM in [3]; 0.376 µM in test [4]; 0.211 µM in [5]; 0.424 µM in [6]. Besides, the TGI in test [7] came to 1.08 µM; in [8] it was 1.04 µM; in test [9] it was 3.09 µM.

As to `CCOC(=O)/C=C/C1=C(c2cccs2)c2ccccc2CC1`, the GI50 in test [1] is 24.2 µM; in [2] it was 45 µM; in test [3], 24.8 µM; in test [10] it was 25.4 µM; in test [4] it was 21.2 µM; in test [7], 38 µM. Also, the GI50 was 24.4 µM in test [8] and 31.1 µM in test [9]. For the same molecule, the TGI in test [1] was 54.3 µM; in test [2] it was above 100 µM; in [3], 69.7 µM; in test [10], 79.5 µM; in test [4], 49.4 µM; in test [7], above 100 µM. The TGI was 65.3 µM in test [8] and above 100 µM in test [9].

For the molecule `COc1ccc2c(c1)/C(=C\c1c(Cl)[nH]c3ccc(OC)cc13)C(=O)N2`, the GI50 in [1] is 28.8 µM; in test [2] it was 26.9 µM; in test [3], 21 µM; in test [10], 16.3 µM; in test [4], 33.3 µM; in test [5], 46.9 µM. Also, the GI50 in [7] is 32.6 µM; in test [8], 21.4 µM; in test [9], 20 µM. The TGI in [1] is above 100 µM; in [2], 67.3 µM; in test [3], 44.1 µM; in test [10], 30.6 µM; in test [4] it was above 100 µM; in [5], above 100 µM. Moreover, the TGI was 95.2 µM in test [7], above 100 µM in test [8] and 48.9 µM in [9].

In the case of `Nc1ccccc1C#C/C=C\C#Cc1ccccc1[N+](=O)[O-]`, the GI50 is 4.66 µM in [1]; 1.96 µM in test [2]; 4.31 µM in test [10]; 4.58 µM in [4]; 27.7 µM in [5]; 2.17 µM in test [6]. The values for the GI50 in test [7] and in test [9] were 17.5 µM and 0.942 µM, respectively. The TGI is 22.6 µM in test [1]; 60.7 µM in test [2]; 36 µM in test [10]; above 100 µM in [4]; above 100 µM in test [5]; 10.4 µM in test [6]. Also, the TGI in [7] is 48.6 µM; in test [9] it was 88.8 µM.

For the molecule `OCCNc1ncnc2c1ncn2Cc1cccc(COc2cccc(OCc3cccc(Cn4cnc5c(NCCO)ncnc54)c3)c2)c1`, the GI50 is 11.9 µM in [1]; 10.6 µM in test [2]; 17.2 µM in [3]; 10.2 µM in test [10]; 6.47 µM in [4]; 11.8 µM in test [5]. In addition, the GI50 in test [6] is 11.5 µM; in test [8], 4.05 µM; in test [9] it was 11.8 µM. Also, the TGI in [1] was 25.9 µM; in test [2], 29.3 µM; in [3], 38.3 µM; in test [10] it was 22.3 µM; in test [4] it was 27.8 µM; in [5], 32.4 µM. Moreover, the TGI came to 25.4 µM in test [6], 16.5 µM in test [8] and 24.9 µM in test [9].

As to `CC1C(=O)OCC2=CCN3CCC(OC(=O)C(C)C1(C)O)C23` (centres undefined), the TGI in test [1], in test [2], in test [3], in test [10], in [4] and in test [5] was above 100 µM each time. Moreover, the TGI in [6], in test [8] and in test [9] was above 100 µM each time.

Turning to `O=c1cccc(C2CC(CO)C3CCCCN3C2)[nH]1` (centres undefined), the TGI in test [1], in [2], in [10], in test [4], in [5] and in test [6] was above 100 µM throughout. Also, the TGI in [8] and in [9] was above 100 µM each time.

For `CCCOc1ccc2nc(NC(=O)OC)[nH]c2c1`, the GI50 in [1] is 1.06 µM; in test [2], 0.171 µM; in [3] it was 2.72 µM; in test [10], 0.22 µM; in [4], 0.502 µM; in test [5] it was 0.426 µM. The GI50 in test [7] is 0.417 µM; in [8] it was 0.174 µM; in test [9], 0.133 µM. Besides, the TGI in [1] was above 100 µM; in [2] it was 0.681 µM; in test [3] it was above 100 µM; in test [10] it was above 100 µM; in [4] it was above 100 µM; in test [5] it was above 100 µM. Besides, the TGI in [7] is above 78.8 µM; in [8], above 100 µM; in test [9] it was above 100 µM.

In the case of `CN(C)CCCNC(=O)c1ccc2c(c1)oc1cc3ccccc3c(=O)n12`, the GI50 in test [1] was 12.7 µM; in test [2], 11 µM; in test [3], above 50 µM; in test [10], 19.3 µM; in test [4], 17.1 µM; in test [5], 18.4 µM. For the same molecule, the values for the GI50 in [7], in [8] and in test [9] were above 50 µM, 12.7 µM and 15.5 µM, respectively. Also, the TGI in [1] was 26.5 µM; in [2] it was 30.8 µM; in [3], above 50 µM; in test [10] it was above 50 µM; in test [4], above 50 µM; in test [5], above 50 µM. For the same molecule, the TGI in test [7] is above 50 µM; in test [8], 27.7 µM; in [9], above 50 µM.

The record behind these values is PubChem BioAssay (NCI).
